Values quoted from earlier work as cited in US11872302B2, “Product for dyeing keratinous material, containing aminosilicone, a chromophoric compound and ester oil” (Henkel AG & Co. KGaA, priority 2019, dated 2024).

Details: 25° C.

Compound | solubility in water | solubility in water, in words
CCN(Cc1cccc(S(=O)(=O)O)c1)c1ccc(C(=C2C=CC(=[N+](CC)Cc3cccc(S(=O)(=O)O)c3)C=C2)c2ccccc2S(=O)(=O)[O-])cc1 [Acid Blue 9] | more than 20 wt. % | –
O=S(=O)(O)c1ccc(N=Nc2c(O)ccc3ccccc23)cc1 [Acid Orange 7, 4-[(2-hydroxy-1-naphthyl)azo]benzene sulphonate] | more than 7 g/L | –
O=[N+]([O-])c1cc([N+](=O)[O-])c2ccc(S(=O)(=O)O)cc2c1O [Acid Yellow 9, 8-hydroxy-5,7-dinitro-2-naphthalenesulfonic acid] | above 40 g/L | –
O=C(O)C1=NN(c2ccc(S(=O)(=O)O)cc2)C(=O)C1N=Nc1ccc(S(=O)(=O)O)cc1 (stereo not shown) [Acid Yellow 23, 4,5-dihydro-5-oxo-1-(4-sulfophenyl)-4-((4-sulfophenyl)azo)-1H-pyrazole-3-carboxylic acid] | – | highly soluble in water
